These results are taken from a melting point compilation (Tetko et al.; mined from patent text by program, amines drawn as free bases though some values may be those of a salt).

Where only a bound is given, the exact number is not on record here.

As usually defined, the melting point is the temperature of the solid-liquid transition.

Regarding `CC(=O)OC1CC(=O)N([Si](C)(C)C)C1` (centres undefined), the melting point was 148 to 150 °C.

Molecule `CCc1nn(CC(N)=O)c(CC)c1Oc1cc(Cl)cc(Cl)c1` yielded a melting point of 164 to 166 °C.

As for `CC(=NO)C(C)(C)NCCN(C)NC(C)(C)C(Cn1ccnc1[N+](=O)[O-])=NO`, the melting point was in the range of 156 to 158 °C.

On to `CON=CC1=CCCN(C(=O)OCC(=O)N2CCCCC2)C1`, for which the melting point was 93 to 94 °C.

For `COc1ccc(C(=O)NCc2cccc3c2CN(C2CCC(=O)NC2=O)C3=O)cc1` (centres undefined), the melting point lay within 289 to 291 °C.

The molecule `CC(c1nc2ccccc2c(=O)n1-c1ccc(F)cc1)N(Cc1cccnc1)C(=O)Cc1ccc(C(F)(F)F)cc1` (centres undefined) returned a melting point of 167 °C.

The molecule `C=C1C(O)C(CO)OC1n1cc(C)c(=O)[nH]c1=O` (centres undefined) yielded a melting point of 161 to 162 °C.

As for `CCCCCOc1ccc2c(c1)C=C(CNC(=O)CCC)CO2`, the melting point came out at 90 °C.

Take `NS(=O)(=O)c1cc2[nH]c(-c3ccccc3)nc2cc1Cl`: the melting point was in the range of 314 to 316 °C.

For the molecule `COc1ccc(C=C2CCN(C(=O)c3nc4ccc(O)cc4[nH]3)CC2)cc1`, the melting point was found to be 208 °C.

`CN1C(=O)C(NC(=O)C23CC4CC(CC(C4)C2)C3)N=C(c2ccccc2)c2ccccc21` (racemic) came in with a melting point of 256 to 257 °C.

On to `CC(CCCl)C(=O)Nc1cc(C(C)(C)C)ns1` (centres undefined), for which the melting point lay within 144 to 146 °C.

As to `CC(=O)NCC#CCn1ccnc1`, the melting point was 93 to 95 °C.

`CCOC(=O)Cn1ncc(-c2ccccc2)c1-c1ccccc1` gave a melting point of 79 to 81 °C.

`O=C(O)CCCCCCCCn1nc(-c2ccccc2)c(-c2ccccc2)n1`: the melting point lay within 84 to 85 °C.

Molecule `CNc1ccc(C#CCCN2CC=C(c3ccccc3)CC2)nc1` had a melting point of 164 to 166 °C.

For `CCOC(=O)CCCCOc1ccc(OC)c(OC)c1C=O`, the melting point fell in the range of 105 to 107 °C.

`CNC(=O)c1ccc(C)c(-n2c(C)cc(OCc3ccccc3CNC(=O)Nc3cc(C(C)(C)C)nn3-c3ccc(O)c(Cl)c3)c(Cl)c2=O)c1`: the melting point was in the range of 201 to 203 °C.

`CC[C@H](C)[C@H](OCc1ccccc1)[C@@H]1[C@H]([N+](=O)[O-])[C@H](c2ccccc2)N[C@]1(C)C(=O)NCC(=O)O` came in with a melting point of 89 to 90 °C.

As for `C#Cc1ccc(Nc2c(C(=O)c3nccs3)ccc(F)c2F)c(F)c1`, the melting point was 161 °C.

`NNC(=O)c1cccc(Cc2c[nH]cn2)c1O` had a melting point of 190 °C.

`Cc1cccc2c(C(=O)C(=O)NC3=CC(=O)OC3)c(C)n(Cc3ccc(Cl)cc3)c12` gave a melting point of 283 to 285 °C.

In the case of `CCOC(=O)CN1C(=O)c2ccc3ccccc3c2S1(=O)=O`, the melting point is 149 to 150 °C.

As for `O=S(=O)(N[C@@H]1C[C@@H](/C=C\CCCCO)N(S(=O)(=O)c2ccc(Cl)cc2)C1)c1ccc(Cl)cc1`, the melting point was in the range of 108 to 109 °C.

`COC(=O)C1N(c2c(C)cccc2C)C(=N)C(C)N1c1c(C)cccc1C` (centres undefined) yielded a melting point of 141 to 142 °C.

The molecule `CC(=O)Nc1ccc(NC(=O)CCl)c(O)c1` gave a melting point of 218 °C.

On to `CCN(CC)CC/C=C/c1ccc2c(Nc3ccc(Sc4nccn4C)c(Cl)c3)c(C#N)cnc2c1`, for which the melting point lay in the range of 200 to 210 °C.

As to `CC(C)N(C)C(=O)COc1cc(-c2ccccc2)nc2ccccc12`, the melting point was 80 °C.

Consider `CN1C(=O)CC[C@]2(C)c3ccc(-c4c(F)cccc4F)cc3CC[C@@H]12`, for which the melting point is 125 to 130 °C.

As for `CNc1nc(Cl)nc2c1ncn2C1SC(CO)C(O)C1O` (centres undefined), the melting point fell in the range of 220 to 222 °C.

On to `O=C(O)CNc1cc(Cl)ccc1[N+](=O)[O-]`, for which the melting point lay within 147 to 148 °C.

Molecule `CC(=O)Oc1ccc2c(c1)Oc1ccccc1C2=C1C2CC3CC(C2)CC1C3` returned a melting point of 162 to 163 °C.

`COC(=O)C1C=CCN2C(=O)C(CCI)(Cc3ccccc3)C(=O)N12` (centres undefined) yielded a melting point of 90 to 92 °C.

Take `CC(C)Oc1ccc(Cc2ccc(N)cc2)cc1`: the melting point lay within 92 to 93 °C.

As for `COc1cc(C2CC(=O)OC(=O)C2)cc2c(C)c(C)oc12`, the melting point lay in the range of 194 to 195 °C.

`O=C(O)c1ccc(CNC(=O)C2Cc3ccccc3N2S(=O)(=O)c2ccc(-c3cccc(C(F)(F)F)c3)cc2)c(Cl)c1` (centres undefined) gave a melting point of 110 to 120 °C.

The molecule `Cc1cccc(NC(=O)CN2CCN(c3ncccc3C#N)CC2)c1` had a melting point of 99 to 100 °C.

Molecule `CC(CCN(C)c1ccccc1)NCC(O)c1ccc(O)c(C(N)=O)c1` (centres undefined) came in with a melting point of 150 to 152 °C.

Molecule `CC(=O)SCC(C)C(=O)NC(CCCNC(=N)N)C(=O)O` (centres undefined) showed a melting point of 133 °C.

`Cc1nc2ncnn2c2c1CCN2CC(C)C` showed a melting point of 143 to 145 °C.

As to `Nc1c(F)c(N2CCC(C(N)c3cccnc3)C2)c(F)c2c1c(=O)c(C(=O)O)cn2C1CC1F` (centres undefined), the melting point is 123 to 126 °C.

The molecule `COC(=O)C(CC1(C)C(=O)Nc2ccccc21)NC(=O)c1ccc(Cl)cc1` (centres undefined) returned a melting point of 201 to 202 °C.

`CCc1nc2c(N)nc3cc(OCCCOc4ccc5c(c4)nc(N)c4nc(CC)sc45)ccc3c2s1` came in with a melting point of 242 to 243 °C.

For `CCOC(=O)C[C@@H]1CCC/C1=C\Cc1c(O)c2c(c(C)c1CC)COC2=O`, the melting point was in the range of 95 to 95.7 °C.

The molecule `Cc1c(-c2ccccc2)c(C2=CC(N(C)C)CC2)c2oc(C3CC3)nc2c1C#N` (centres undefined) returned a melting point of 144 to 146 °C.

`N#Cc1ccc(-c2ccc(-c3ccc(C#N)cn3)s2)cc1` showed a melting point of 316 to 318 °C.

Molecule `CCCCCCCCCCCCCCCCCCCCCC(=O)Nc1ccn(C2OC(CO)C(O)C2O)c(=O)n1` (centres undefined) registered a melting point of 141 to 143 °C.

`COc1ccc(S(=O)(=O)c2ccccc2)cc1S(=O)(=O)NC1CCOCC1` registered a melting point of 176 to 178 °C.

On to `CCC(CC)(CC)C(=O)NC(C)(C)CO`, for which the melting point fell in the range of 57 to 58 °C.

In turn, `OC(=S)CCc1ccc(Cl)c(Cl)c1` had a melting point of 63 to 64 °C.

`CCCc1nc2cc(Cl)c(S(N)(=O)=O)cc2[nH]1`: the melting point lay in the range of 230 to 234 °C.

With `CSc1cccc(-n2cnc(-c3ccc(F)cc3)c2-c2ccncc2)c1`, the melting point lay in the range of 155 to 156 °C.

The molecule `O=C(CN1CN(OC(F)(F)F)C=N1)c1ccccc1` came in with a melting point of 98 to 101 °C.

The molecule `COc1ccnc2c1c(C(C)=O)cn2C` gave a melting point of 79 to 81 °C.

Molecule `CCCCCCCCCC(O)P(=O)(O)O` (centres undefined) returned a melting point of 164 °C.

With `CCN(CC)CCCOc1ccc(C[C@H](NC(=O)[C@@H]2CCCN2S(=O)(=O)c2ccc(C)cc2)C(=O)O)cc1`, the melting point lay in the range of 76 to 82 °C.

`CSc1nc(C)ccc1NC(=O)CCCCCCCCSc1nc2ccccc2[nH]1` displayed a melting point of 73 to 75 °C.

Take `O=C(NCCCc1ccccc1)Oc1ccccc1`: the melting point was in the range of 55 to 56 °C.

Regarding `O=C1Nc2ccccc2C12CCCC2Br` (centres undefined), the melting point was 238 to 240 °C.

In the case of `CCOC(CCN(C(=O)c1cccs1)c1nc(-c2cc(-c3ccccc3)no2)cs1)OCC`, the melting point fell in the range of 100 to 101 °C.

The molecule `Cc1c(-c2ccc(Cl)nc2)sc2nc(N)[nH]c(=O)c12` registered a melting point of 230 to 250 °C.

In turn, `O=C1N(CC2COCCO2)c2ccccc2C12COc1cc3c(cc12)OCC3` (centres undefined) registered a melting point of 162 to 164 °C.

The molecule `CC1=C(C(=O)OC2CN(C(c3ccccc3)c3ccccc3)C2)C(c2cccc([N+](=O)[O-])c2)C(C(=O)OC(C)C)=C(N)N1` (centres undefined) gave a melting point of 104 to 107 °C.

With `O=C(c1ccccc1)c1cccc2c1CCCC2C(=O)O` (centres undefined), the melting point is 164 to 165 °C.

Molecule `CS(=O)(=O)OCCN(CCI)c1c(C(=O)NCCOP(=O)(O)O)cc([N+](=O)[O-])cc1[N+](=O)[O-]` yielded a melting point of 147 to 150 °C.

`CS(=O)(=O)c1ccc(-c2cccn2-c2ccc(F)cc2)cc1` returned a melting point of 145 to 147 °C.

Molecule `COc1ccc2cc(-c3cc4c(cc3N)OCO4)ccc2c1` gave a melting point of 130 to 132 °C.

Molecule `COc1ccc2c(n1)C1(CO2)C(=O)Nc2ccccc21` (centres undefined) displayed a melting point of 199 to 200 °C.

For `Cc1cccc(-c2n[nH]cc2-c2ccc(F)c(-c3ncc(C(C)(C)O)cn3)c2)n1`, the melting point was 162 °C.

Regarding `O=C(O)c1cccc2c1[nH]c1c(Cl)c(Cl)ccc12`, the melting point turned out to be 290 °C.

Molecule `Nc1ccc2c(=O)[nH]c(=O)n(-c3ccccc3)c2n1` had a melting point of more than 300 °C.

`COc1ccc(C2OC(=O)c3cc(OC)c(OC)c(OC)c32)cc1OC` (centres undefined): the melting point was 141 to 142 °C.

With `N#Cc1c(-c2ccc(Cl)cc2)[nH]c(C(F)(F)F)c1C(F)(F)F`, the melting point amounted to 208 °C.

As for `Cc1cccc(C(=O)NCc2cccc3c2CN(C2CCC(=O)NC2=O)C3=O)c1` (centres undefined), the melting point lay within 253 to 255 °C.

With `Cc1nc2ccnc(-c3ccccc3)n2n1`, the melting point fell in the range of 68 to 71 °C.

For the molecule `CC(C)C(C(=O)O)c1ccc(N=[N+]=[N-])cc1` (centres undefined), the melting point lay in the range of 95 to 97 °C.

In the case of `CS(=O)c1onc(-c2ccccc2)c1-c1ccc(S(N)(=O)=O)cc1` (centres undefined), the melting point was 194 to 204 °C.

`COC(=O)c1ccc(OC2=C3N=C4CCCCC4=C3C(Cc3cccc(F)c3)C=C2)o1` (centres undefined) gave a melting point of 86 to 88 °C.

Consider `CN(C)C1(Cc2ccccc2)CCC(O)(c2csc3ccccc23)CC1` (centres undefined), for which the melting point was in the range of 158 to 160 °C.

Regarding `CC(=O)OCCn1c(=O)oc(=O)c2ccccc21`, the melting point fell in the range of 128 to 131 °C.

Take `CC(C)OP(=O)(OC(C)C)c1nc(N)nc(N)n1`: the melting point was more than 400 °C.

For `Cc1ccc(Cl)c2c1[nH]c1c(C(=O)O)cccc12`, the melting point was 303 °C.

Molecule `CCCCc1c[nH]cn1` gave a melting point of 42 to 45 °C.

With `CC1N(C)C=C([N+](=O)[O-])N1CCOC(=O)Nc1cccc(C(N)=O)c1` (centres undefined), the melting point was 207 °C.

`COc1cc(C)nc(NC(=O)NS(=O)(=O)N(C)S(C)(=O)=O)n1` displayed a melting point of 118 to 120 °C.

For the molecule `CON=C1CN(c2c(F)cc3c(=O)c(C(=O)O)cn(C4CC4)c3c2F)CC12CN(C(=O)OC(C)(C)C)C2`, the melting point was in the range of 255 to 256 °C.

For `CN(C)OC(=O)c1c(O)cccc1Cl`, the melting point was in the range of 104 to 106 °C.

As for `CC(CCC1(C(N)=O)c2ccccc2-c2ccccc21)N(C)C` (centres undefined), the melting point lay in the range of 104 to 106 °C.

For the molecule `NP(N)(=O)Oc1ccc2cccc(NS(=O)(=O)c3ccc([N+](=O)[O-])cc3)c2c1`, the melting point lay in the range of 234 to 235 °C.
